Reference: patent US6514957B1, “Method of alleviating the violence and stimulating the appetite of stag in the puberty age of the fall and method of promoting the growth of stag's horn” (priority 2001, dated 2003)
“And” between values parts separate entries of the source, which are not always exact repeats. Identical values can stand only once. “Also recorded” adds a separate entry of the source.

How the values were obtained:
[1] = system: stags of elk of which the first horn was cut in the summer; test: Promoting the growth of the second stag's horn after cutting the first horn; assay type: in vivo; details: for Growth and development progress of the second stag's horn: 500 mg (1 mg/kg) injected Oct. 2, 1999 or Oct. 2, 2000
Protocol: To 4 stags of elk, of which the first horn coming up in the spring and growing cut in the summer, each in the weight of 500 kg, 17β-decanoate-4-estrene-3-one 500 mg (effective dose corresponding to 1 mg per 1 kg of the weight of stag: “ANABOLIN FORTE” is the trademark manufactured by Alfasan in Nederland and containing 17β-decanoate-4-estrene-3-one 50 mg in a injection product 1 ml; “ANABOLIN FORTE 10 ml” is the trademark imported by BUM-HAN PHARM. in Korea) was injected-injected.
To 8 stags of elk, each in the weight of 500 kg, of which the first horn coming up in the spring and grown up cuts in the summer, 17β-decanoate-4-estrene-3-one 50 mg, 100 mg, 250 mg, 500 mg, 750 mg, 1,000 mg, 2,500 mg and 5,000 mg (effective doses corresponding to 0.1 mg, 0.2 mg, 0.5 mg, 1.0 mg, 1.5 mg, 2.0 mg, 5.0 mg and 10 mg per 1 kg of the weight of stag: “ANABOLIN FORTE” is the trademark manufactured by Alfasan in Nederland and containing 17β-decanoate-4-estrene-3-one 50 mg in a injection product 1 ml; “ANABOLIN FORTE 1 ml, 2 ml, 5 ml, 10 ml, 15 ml, 20 ml, 50 ml and 100 ml” is the trademark imported by BUM-HAN PHARM. in Korea) were injected-injected.
Example 8 was the same as Example 3, except that Example 8 substituted 17β-cyclohexylpropionate-4-estrene-3-one for 17β-decanoate-4-estrene-3-one.
Example 9 was the same as Example 5, except that Example 9 substituted 17β-cyclohexylpropionate-4-estrene-3-one for 17β-decanoate-4-estrene-3-one.
Example 11 was the same as Example 3, except that Example 9 substituted a compound of 17β-decanoate-4-estrene-3-one and 17β-cyclohexylpropionate-4-estrene-3-one for 17β-decanoate-4-estrene-3-one.

[2] = system: stags of elk, violent and anorexia in the puberty age of the fall; test: Alleviating the violence and stimulating the appetite of stags in the puberty age of the fall; assay type: in vivo
Protocol: To 4 stags of elk, each in the weight of 500 kg, which is violent and anorexia in the puberty age of the fall, 17β-decanoate-4-estrene-3-one 500 mg (effective dose corresponding to 1 mg per 1 kg of the weight of stag: “ANABOLIN FORTE” is the trademark manufactured by Alfasan in Nederland and containing 17β-decanoate-4-estrene-3-one 50 mg in a injection product 1 ml; “ANABOLIN FORTE 10 ml” is the trademark imported by BUM-HAN PHARM. in Korea) was intramuscularly-injected.
To 8 stags of elk, each in the weight of 500 kg, which is violent and anorexia in the puberty age of the fall, 17β-decanoate-4-estrene-3-one 50 mg, 100 mg, 250 mg, 500 mg, 750 mg, 1,000 mg, 2,500 mg and 5,000 mg (effective doses corresponding to 0.1 mg, 0.2 mg, 0.5 mg, 1.0 mg, 1.5 mg, 2.0 mg, 5.0 mg and 10 mg per 1 kg of the weight of stag: “ANABOLIN FORTE” is the trademark manufactured by Alfasan in Nederland and containing 17β-decanoate-4-estrene-3-one 50 mg in a injection product 1 ml; “ANABOLIN FORTE 1 ml, 2 ml, 5 ml, 10 ml, 15 ml, 20 ml, 50 ml and 100 ml” is the trademark imported by BUM-HAN PHARM. in Korea) were injected-injected.
Example 6 was the same as Example 1, except that Example 6 substituted 17β-cyclohexylpropionate-4-estrene-3-one for 17β-decanoate-4-estrene-3-one.
Example 7 was the same as Example 2, except that Example 7 substituted 17β-cyclohexylpropionate-4-estrene-3-one for 17β-decanoate-4-estrene-3-one.
Example 10 was the same as Example 2, except that Example 9 substituted a compound of 17β-decanoate-4-estrene-3-one and 17β-cyclohexylpropionate-4-estrene-3-one for 17β-decanoate-4-estrene-3-one.

[3] = Elk 5, 500 kg, dose 50 mg (0.1 mg/kg) injected
[4] = Elk 6, 500 kg, dose 100 mg (0.2 mg/kg) injected
[5] = Elk 7, 500 kg, dose 250 mg (0.5 mg/kg) injected
[6] = Elk 8, 500 kg, dose 500 mg (1.0 mg/kg) injected
[7] = Elk 9, 500 kg, dose 750 mg (1.5 mg/kg) injected
[8] = Elk 10, 500 kg, dose 1,000 mg (2.0 mg/kg) injected
[9] = Elk 11, 500 kg, dose 2,500 mg (5.0 mg/kg) injected
[10] = Elk 12, 500 kg, dose 5,000 mg (10 mg/kg) injected
[11] = elk stags 500 kg, doses 0.1, 0.2, 0.5, 1.0, 1.5, 2.0, 5.0 and 10 mg per kg

C[C@]12CC[C@H]3[C@@H](CCC4=CC(=O)CC[C@@H]43)[C@@H]1CC[C@@H]2OC(=O)CCC1CCCCC1 [17β-cyclohexylpropionate-4-estrene-3-one]
test results (growth and production amount of the second stag's horn) compared with 17β-decanoate-4-estrene-3-one ([1]; conducted as Example 3: 500 mg (1 mg/kg), elk stags 500 kg): the same as those of Example 3
test results (production amount of the second stag's horn by dose) compared with 17β-decanoate-4-estrene-3-one ([1]; conducted as Example 5: 50 to 5,000 mg (0.1 to 10 mg/kg), elk stags 500 kg): the same as those of Example 5
test results (violence, appetite) compared with 17β-decanoate-4-estrene-3-one ([2]; conducted as Example 1: 500 mg (1 mg/kg) intramuscular, elk stags 500 kg): the same as those of Example 1
test results (violence, appetite) compared with 17β-decanoate-4-estrene-3-one ([2]; conducted as Example 2: 50 to 5,000 mg (0.1 to 10 mg/kg), elk stags 500 kg): the same as those of Example 2

CCCCCCCCCC(=O)O[C@H]1CC[C@H]2[C@@H]3CCC4=CC(=O)CC[C@@H]4[C@H]3CC[C@]12C [17β-decanoate-4-estrene-3-one]
Growth and development progress of the second stag's horn ([1]; 0 days after administration, individual Elk 21, 22 (500 kg)): 0 cm
production amount of the second stag's horn relative to that of the first stag's horn ([1]; 1 mg/kg injected, elk 500 kg): about 80%
time from administration until the second stag's horn comes up ([1]; 1 mg/kg intramuscularly injected, elk 500 kg): 30 days
growth rate of the second stag's horn ([1]; 1 mg/kg intramuscularly injected, elk 500 kg, after the horn came up): 3 cm per a day
Production amount of stag's horn: the second horn collected in the next spring ([1]; 500 mg (1 mg/kg) injected 1999.10.2 or 2000.10.2, individual Elk 21, 22 (500 kg)): 12 kg (2×) and 9.6 kg (2×)
Growth and development progress of the second stag's horn ([1]; 10 days after administration, individual Elk 21, 22 (500 kg)): 0 cm
Growth and development progress of the second stag's horn ([1]; 20 days after administration, individual Elk 21, 22 (500 kg)): 0 cm
Growth and development progress of the second stag's horn ([1]; 30 days after administration, individual Elk 21, 22 (500 kg)): 0.5 cm
Growth and development progress of the second stag's horn ([1]; 40 days after administration, individual Elk 21, 22 (500 kg)): approximately 30 cm and 30 cm
Growth and development progress of the second stag's horn ([1]; 50 days after administration, individual Elk 21, 22 (500 kg)): 40 cm
Growth and development progress of the second stag's horn ([1]; 60 days after administration, individual Elk 21, 22 (500 kg)): 60 cm
Growth and development progress of the second stag's horn ([1]; 70 days after administration, individual Elk 21, 22 (500 kg)): 80 cm
Growth and development progress of the second stag's horn ([1]; 80 days after administration, individual Elk 21, 22 (500 kg)): 90 cm and 100 cm (3×)
Growth and development progress of the second stag's horn ([1]; 90 days after administration, individual Elk 21, 22 (500 kg)): 100 cm and 110 cm (2×) and 120 cm
Growth and development progress of the second stag's horn ([1]; 100 days after administration, individual Elk 21, 22 (500 kg)): 100 cm and 110 cm (2×) and 120 cm
Production amount of stag's horn: the second horn collected in the next spring ([1]; Elk 31, 500 kg, dose 50 mg (0.1 mg/kg), first horn 15 kg): 5 kg
Production amount of stag's horn: the second horn collected in the next spring ([1]; Elk 32, 500 kg, dose 100 mg (0.2 mg/kg), first horn 15 kg): 5 kg
Production amount of stag's horn: the second horn collected in the next spring ([1]; Elk 33, 500 kg, dose 250 mg (0.5 mg/kg), first horn 15 kg): 12 kg
Production amount of stag's horn: the second horn collected in the next spring ([1]; Elk 34, 500 kg, dose 500 mg (1.0 mg/kg), first horn 15 kg): 12 kg
Production amount of stag's horn: the second horn collected in the next spring ([1]; Elk 35, 500 kg, dose 750 mg (1.5 mg/kg), first horn 15 kg): 12 kg
Production amount of stag's horn: the second horn collected in the next spring ([1]; Elk 36, 500 kg, dose 1,000 mg (2.0 mg/kg), first horn 15 kg): 12 kg
Production amount of stag's horn: the second horn collected in the next spring ([1]; Elk 37, 500 kg, dose 2,500 mg (5.0 mg/kg), first horn 15 kg): 5 kg
Production amount of stag's horn: the second horn collected in the next spring ([1]; Elk 38, 500 kg, dose 5,000 mg (10 mg/kg), first horn 15 kg): 5 kg
growth of stag's horn ([1]; elk 500 kg, doses 0.1, 0.2, 0.5, 1.0, 1.5, 2.0, 5.0 and 10 mg per kg): promoted
Status After: appetite [2, 3]: Stimulating appetite
Status After: violence [2, 3]: Alleviating violence
Status After: appetite [2, 4]: Stimulating appetite
Status After: violence [2, 4]: Alleviating violence
Status After: appetite [2, 5]: Stimulating appetite
Status After: violence [2, 5]: Alleviating violence
Status After: appetite [2, 6]: Stimulating appetite
Status After: violence [2, 6]: Alleviating violence
Status After: appetite [2, 7]: Stimulating appetite
Status After: violence [2, 7]: Alleviating violence
Status After: appetite [2, 8]: Stimulating appetite
Status After: violence [2, 8]: Alleviating violence
Status After: appetite [2, 9]: Stimulating appetite
Status After: violence [2, 9]: Alleviating violence
Status After: appetite [2, 10]: Stimulating appetite
Status After: violence [2, 10]: Alleviating violence
Status After: appetite ([2]; elk stags 500 kg, anorexia before, 500 mg (1 mg/kg) intramuscularly injected 2000.10.2, individual Elk 1-4): stimulated in appetite; also recorded: Stimulating appetite
Status After: violence ([2]; elk stags 500 kg, violent before, 500 mg (1 mg/kg) intramuscularly injected 2000.10.2, individual Elk 1-4): less violent; also recorded: Alleviating violence
intake of feed ([2]; elk stags 500 kg, 1.0 mg/kg intramuscularly injected): increasing the intake of feed
appetite after injection [2, 11]: stimulated in appetite
intake of feed [2, 11]: increasing the intake of feed
violence after injection [2, 11]: less violent
